What was measured:
Assay type in all cases: organism-based
Cicer arietinum [1] = experiment: Toxicity in drug-tolerant Cicer arietinum (chickpea) assessed as effect on root dry weight per pot at 75 g/ha after 42 days (reference value: 0.30 gram); conditions: in vivo, 1008 h
Cicer arietinum [2] = experiment: Toxicity in drug-tolerant Cicer arietinum (chickpea) assessed as effect on amount of fixed nitrogen level per gram of plant dry weight at 75 g/ha after 42 days in presence of 1.5 mM of nitrate (reference value: 5.9 mg); conditions: in vivo, 1008 h
Cicer arietinum [3] = experiment: Toxicity in drug-sensitive Cicer arietinum (chickpea) assessed as effect on shoot dry weight per pot at 75 g/ha after 42 days in presence of 1.5 mM of nitrate (reference value: 0.38 gram); conditions: in vivo, 1008 h
Cicer arietinum [4] = experiment: Toxicity in drug-sensitive Cicer arietinum (chickpea) assessed as effect on root nitrogen level per gram of root dry weight at 75 g/ha after 42 days (reference value: 13.4 mg); conditions: in vivo, 1008 h
Cicer arietinum [5] = experiment: Toxicity in drug-tolerant Cicer arietinum (chickpea) assessed as effect on shoot dry weight per pot at 75 g/ha after 42 days in presence of 1.5 mM of nitrate (reference value: 0.50 gram); conditions: in vivo, 1008 h
Cicer arietinum [6] = experiment: Toxicity in drug-tolerant Cicer arietinum (chickpea) assessed as effect on shoot dry weight per pot at 75 g/ha after 42 days (reference value: 0.53 gram); conditions: in vivo, 1008 h
Cicer arietinum [7] = experiment: Toxicity in drug-sensitive Cicer arietinum (chickpea) assessed as effect on shoot dry weight per pot at 75 g/ha after 42 days (reference value: 0.50 gram); conditions: in vivo, 1008 h
Cicer arietinum [8] = experiment: Toxicity in drug-sensitive Cicer arietinum (chickpea) assessed as effect on root dry weight per pot at 75 g/ha after 42 days (reference value: 0.26 gram); conditions: in vivo, 1008 h
Cicer arietinum [9] = experiment: Toxicity in drug-tolerant Cicer arietinum (chickpea) assessed as effect on plant height at 75 g/ha after 42 days (reference value: 21.4 cm); conditions: in vivo, 1008 h
Cicer arietinum [10] = experiment: Toxicity in drug-sensitive Cicer arietinum (chickpea) assessed as effect on plant height at 75 g/ha after 42 days (reference value: 21.8 cm); conditions: in vivo, 1008 h
Cicer arietinum [11] = experiment: Toxicity in drug-tolerant Cicer arietinum (chickpea) assessed as effect on average nodule weight at 75 g/ha after 42 days (reference value: 1.21 mg); conditions: in vivo, 1008 h
Cicer arietinum [12] = experiment: Toxicity in drug-sensitive Cicer arietinum (chickpea) assessed as effect on amount of fixed nitrogen level per gram of plant dry weight at 75 g/ha after 42 days in presence of 1.5 mM of nitrate (reference value: 6 mg); conditions: in vivo, 1008 h
Cicer arietinum [13] = experiment: Toxicity in drug-tolerant Cicer arietinum (chickpea) assessed as effect on root nitrogen level per gram of root dry weight at 75 g/ha after 42 days (reference value: 12.1 mg); conditions: in vivo, other, 1008 h
Cicer arietinum [14] = experiment: Toxicity in drug-sensitive Cicer arietinum (chickpea) assessed as effect on amount of fixed nitrogen level per gram of plant dry weight at 75 g/ha after 42 days (reference value: 5.5 mg); conditions: in vivo, 1008 h
Cicer arietinum [15] = experiment: Toxicity in drug-sensitive Cicer arietinum (chickpea) assessed as effect on total nitrogen level per gram of plant dry weight at 75 g/ha after 42 days (reference value: 34.5 mg); conditions: in vivo, 1008 h
Cicer arietinum [16] = experiment: Toxicity in drug-tolerant Cicer arietinum (chickpea) assessed as effect on nodule dry weight per gram of root dry weight at 75 g/ha after 42 days (reference value: 209.7 mg); conditions: in vivo, other, 1008 h
Cicer arietinum [17] = experiment: Toxicity in drug-tolerant Cicer arietinum (chickpea) assessed as effect on total nitrogen level per gram of plant dry weight at 75 g/ha after 42 days (reference value: 31.1 mg); conditions: in vivo, 1008 h
Cicer arietinum [18] = experiment: Toxicity in drug-tolerant Cicer arietinum (chickpea) assessed as effect on amount of fixed nitrogen level per gram of plant dry weight at 75 g/ha after 42 days (reference value: 5.5 mg); conditions: in vivo, 1008 h
Cicer arietinum [19] = experiment: Toxicity in drug-sensitive Cicer arietinum (chickpea) assessed as effect on average nodule weight at 75 g/ha after 42 days (reference value: 1.31 mg); conditions: in vivo, 1008 h
Cicer arietinum [20] = experiment: Toxicity in drug-sensitive Cicer arietinum (chickpea) assessed as effect on nodule dry weight per gram of root dry weight at 75 g/ha after 42 days (reference value: 258 mg); conditions: in vivo, 1008 h

Compound `CS(=O)(=O)c1cc(C(F)(F)F)ccc1C(=O)c1cnoc1C1CC1` [ISOXAFLUTOLE] has an Activity (Cicer arietinum [1]) of 0.27 g, an Activity (Cicer arietinum [2]) of 3.1 mg and an Activity (Cicer arietinum [3]) of 0.51 g. The Activity (Cicer arietinum [4]) was 8.1 mg, the Activity (Cicer arietinum [5]) was 0.54 g and the Activity (Cicer arietinum [6]) was 0.51 g. For the same compound, the Activity (Cicer arietinum [7]) was 0.39 g, the Activity (Cicer arietinum [8]) was 0.13 g and the Activity (Cicer arietinum [9]) was 20.6 cm. The Activity (Cicer arietinum [10]) was 15.5 cm, the Activity (Cicer arietinum [11]) was 1.16 mg and the Activity (Cicer arietinum [12]) was 4.6 mg. It also gave an Activity (Cicer arietinum [13]) of 11.1 mg, an Activity (Cicer arietinum [14]) of 3.5 mg and an Activity (Cicer arietinum [15]) of 27.4 mg. It also gave an Activity (Cicer arietinum [16]) of 174.9 mg, an Activity (Cicer arietinum [17]) of 30.1 mg and an Activity (Cicer arietinum [18]) of 3.7 mg. It also gave an Activity (Cicer arietinum [19]) of 0.76 mg and an Activity (Cicer arietinum [20]) of 123.7 mg.
